Consider three molecules from US7772269B2, “Pyrazole analogs” (Pfizer Inc., priority 2006, dated 2010).

The conditions of data set [1]: clinical trial; cited from earlier work.
The nature of data set [2]: Emesis evaluation in beagle dogs. Format: in vivo. Particulars: for emesis / emesis (number of dogs): dogs. The procedure:
Experiments were undertaken to differentiate local gastrointestinal emetic stimuli during dissolution and absorption of an oral compound from emetic stimuli produced during systemic exposure through the bloodstream. […] These findings were observed after 8-12 kg purpose-bred beagle dogs were administered 4-(3-{[4-(1-methyl-1H-pyrazol-5-yl)phenyl]thio}phenyl)tetrahydro-2H-pyran-4-carboxamide by IV infusion, using a loading dose followed by a slow infusion to attain a peak blood level over 30 minutes to 1 hour in duration. More specifically, compounds were diluted in phosphate buffered saline to a concentration where 10 ml/kg total volume was administered through an intravenous catheter using an infusion pump, with approximately 90% of the total dose being delivered in the first 5 minutes, and the remaining dose administered over the next 25 minutes. Similar delivery methods to produce an exposure that approximates the systemic pharmacokinetic profile seen with oral delivery are anticipated to give similar results. More rapid methods of administration and the resultant high plasma concentrations are not anticipated to discriminate useful compounds from non-useful compounds. For example, IV bolus administration may produce a higher peak plasma concentration and systemic gastrointestinal effects than those achieved for compounds that following absorption from the GI tract, would have acceptable peak plasma concentrations and therapeutic efficacy. […] Periodic serum and plasma samples were obtained during the first 6 hours to document systemic inhibition of the 5-lipoxygenase enzyme as well as exposure levels of the compound. […] In one study, 4-(3-(4-(2-methyl-1H-imidazol-1-yl)phenylthio)phenyl)-tetrahydro-2H-pyran-4-carboxamide was administered intravenously at 10 mg/kg, 30 mg/kg and 60 mg/kg as well as 30 mg per kg by the oral route. […] In another experiment, 4-(3-{[4-(1-methyl-1H-pyrazol-5-yl)phenyl]thio}phenyl)tetrahydro-2H-pyran-4-carboxamide was administered orally at doses of 100 mg per kg, 300 mg per kg, and 600 mg per kg, with emesis only observed in 2 dogs at 100 mg per kg and one dog at 300 mg per kg.

Data set [3] addresses T1, 5-LO (Rattus norvegicus, UniProt P12527).
T1 construct: from tissue; host or cells: rat air pouch (Lewis rat, in vivo)
T1 sequence (P12527 1-673): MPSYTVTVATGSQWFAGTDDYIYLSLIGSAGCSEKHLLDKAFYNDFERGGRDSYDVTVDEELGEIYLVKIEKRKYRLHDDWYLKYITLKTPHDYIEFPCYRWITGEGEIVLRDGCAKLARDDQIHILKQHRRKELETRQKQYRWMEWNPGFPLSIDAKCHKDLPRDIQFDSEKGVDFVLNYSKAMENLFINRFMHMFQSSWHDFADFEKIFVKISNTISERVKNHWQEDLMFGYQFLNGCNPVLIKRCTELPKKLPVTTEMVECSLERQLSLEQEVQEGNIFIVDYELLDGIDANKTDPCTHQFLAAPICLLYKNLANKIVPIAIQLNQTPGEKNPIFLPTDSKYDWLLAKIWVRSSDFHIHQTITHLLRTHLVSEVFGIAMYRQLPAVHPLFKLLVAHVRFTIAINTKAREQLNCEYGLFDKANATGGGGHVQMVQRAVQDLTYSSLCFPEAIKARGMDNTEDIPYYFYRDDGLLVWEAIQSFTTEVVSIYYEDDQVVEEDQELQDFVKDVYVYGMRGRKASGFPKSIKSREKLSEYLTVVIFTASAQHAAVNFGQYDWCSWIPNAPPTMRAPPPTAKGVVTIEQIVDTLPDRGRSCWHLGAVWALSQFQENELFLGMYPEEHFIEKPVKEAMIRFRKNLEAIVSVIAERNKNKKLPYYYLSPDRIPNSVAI
Put plainly: Carrageenan-induced eicosanoid production in the rat air pouch. Particulars: leukotriene levels in rat air pouch fluid, lower % = higher activity. It is filed as in vivo. As for the experimental part: For a correct interpretation of the results, it is noted that the lower the % of control, the higher the activity of a test compound. Male Lewis rats (175-200 g), Charles River Laboratories, Wilmington, Mass.) were used in the study. Air pouches were produced by subcutaneous injection of 20 ml of sterile air into the intrascapular area of the back. Pouches were allowed to develop for 1 day. Animals (6 per group) were fasted with free access to water for 16 to 24 hours prior to drug administration. Drugs or vehicle were administered by gavage 1 hour prior to injection of 2 ml of a 1% suspension of carrageenan (FMC BioPolymer, Philadelphia, Pa., Cat. # GP209-NF) dissolved in saline into the pouch. At 3 hours post-carrageenan injection, 1 ml of 50 μg/ml calcium ionophore in saline (A23187, Sigma Chemical Co, St. Louis, M, Cat. #C-7522) was injected into the pouch and the pouch fluid collected 10 minutes later by lavage. The fluid was centrifuged at 3500 rpm for 10 minutes at 4° C., and the supernatants were collected for analysis. Leukotriene levels were quantitated by ELISA according to the manufacturer's directions (Cayman Chemical Company, Ann Arbor, Mich.).

In data set [4] the target is T2, 5-LO (Homo sapiens, UniProt P09917).
T2 sequence (P09917 1-674): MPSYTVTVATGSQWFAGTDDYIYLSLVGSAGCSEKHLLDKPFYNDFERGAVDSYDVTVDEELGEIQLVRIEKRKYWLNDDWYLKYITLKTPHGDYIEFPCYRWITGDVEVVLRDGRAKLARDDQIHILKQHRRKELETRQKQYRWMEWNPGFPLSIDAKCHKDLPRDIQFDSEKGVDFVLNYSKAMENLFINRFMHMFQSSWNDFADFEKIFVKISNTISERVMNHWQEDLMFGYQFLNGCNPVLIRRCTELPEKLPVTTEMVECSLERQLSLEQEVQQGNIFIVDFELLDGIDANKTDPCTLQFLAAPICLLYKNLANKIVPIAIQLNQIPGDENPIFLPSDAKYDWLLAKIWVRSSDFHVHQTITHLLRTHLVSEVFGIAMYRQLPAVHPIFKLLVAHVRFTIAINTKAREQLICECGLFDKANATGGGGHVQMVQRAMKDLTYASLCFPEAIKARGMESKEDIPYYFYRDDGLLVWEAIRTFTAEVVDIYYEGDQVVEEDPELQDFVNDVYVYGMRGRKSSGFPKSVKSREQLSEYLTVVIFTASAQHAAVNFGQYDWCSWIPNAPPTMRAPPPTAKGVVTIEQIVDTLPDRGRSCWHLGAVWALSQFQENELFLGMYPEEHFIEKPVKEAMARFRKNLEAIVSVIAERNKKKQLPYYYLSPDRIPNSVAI
Put plainly: Fluorescence Intensity 5-LO Enzyme Assay. It is filed as biochemical. The note with it: recombinant human 5-LO crude lysate, H2DCFDA oxidation, 3 μM arachidonic acid. As for the experimental part: The enzyme assay is based on the oxidation of the non-fluorescent compound 2′,7′-dichlorodihydrofluorescein diacetate (H2DCFDA) to the fluorescent 2′,7′ dichlorofluorescein by 5-LO in an arachidonic acid-dependent reaction. Ester cleavage of the acetate groups of the substrate H2DCFDA must occur prior to oxidation. This is achieved through use of a crude cell lysate preparation of recombinant human 5-LO. The enzyme assay ([…]) contained 50 mM Tris (pH 7.5), 2 mM CaCl2, 2 mM EDTA, 3 μM arachidonic acid (Nu-Chek Prep; #S-1133), 10 μM ATP, 10 μM H2DCFDA (Invitrogen; #D399), inhibitor (varying concentration) and recombinant human 5-LO enzyme (1.25 μL crude lysate per well).
Inhibitors (dissolved in DMSO) were plated into a 384-well assay plate (Corning #3654) at 1 μL followed by a 20 μL addition of a solution containing 5-LO enzyme and H2DCFDA. Enzyme and H2DCFDA were pre-incubated for 5 minutes to allow time for acetate group cleavage of the dye prior to addition to the assay plate. After a 10 minute preincubation of inhibitor and enzyme/dye mix, the assay was initiated by the addition of a substrate solution containing arachidonic acid and ATP. The enzymatic reaction was run for 20 min at room temperature and terminated by the addition of 40 μL of acetonitrile. Assay plates were read in a plate reader using standard wavelengths for fluorescein. […]

Data set [5] concerns the target T2, 5-LO. Nature of the data set: Eicosanoid production from human whole blood (HWB/LTB4: ionophore induced LTB4). Format: cell-based. Details: from tissue; host or cells: pooled human whole blood. The procedure: Human whole blood was collected from healthy or asthmatic human donors in 10 ml heparinized tubes (Vacutainer tubes; Becton Dickenson, Franklin Lakes, N.J.). Collected blood was pooled and 80 μl was dispensed into each well of 384 well polypropylene plates using a Multi-Drop™ 384-well dispenser (Titertek, Huntsville, Ala.). Varying concentrations of compounds were dissolved in DMSO then 2 μl/well was added to the blood using a PlateMate Plus™ automated pipetting station (Matrix Technologies, Hudson, N.H.). The compounds were preincubated with the blood at room temperature for 10 minutes followed by stimulation with 40 μl calcium ionophore (A23187, Sigma Chemical Co, St. Louis, Mo., Cat. # C-7522) and 30 μl arachidonic acid (S-1133, NU-Chek PREP, Inc., Elysian, MN, Cat. # S-1133) dissolved in 60% ethanol. After 15 min incubation at 37° C. in a shallow water bath, the blood was centrifuged at 800 g for 10 minutes at 4° C., the supernatants collected, and leukotriene and prostaglandin levels measured by ELISA according to the manufacturer's directions (Cayman Chemical Company, Ann Arbor, Mich.). The assay was performed at a final concentration of 2.5% DMSO. Results of this assay are shown as follows:
HWB/LTB4: Ionophore Induced LTB4 from Human Whole Blood

The next data set deals with 5-lipoxygenase enzyme. Nature of the data set: Systemic inhibition of the 5-lipoxygenase enzyme in dogs (emesis study). It is filed as in vivo, beagle dogs. Particulars: 5 mg/kg IV. The procedure:
Experiments were undertaken to differentiate local gastrointestinal emetic stimuli during dissolution and absorption of an oral compound from emetic stimuli produced during systemic exposure through the bloodstream. […] These findings were observed after 8-12 kg purpose-bred beagle dogs were administered 4-(3-{[4-(1-methyl-1H-pyrazol-5-yl)phenyl]thio}phenyl)tetrahydro-2H-pyran-4-carboxamide by IV infusion, using a loading dose followed by a slow infusion to attain a peak blood level over 30 minutes to 1 hour in duration. More specifically, compounds were diluted in phosphate buffered saline to a concentration where 10 ml/kg total volume was administered through an intravenous catheter using an infusion pump, with approximately 90% of the total dose being delivered in the first 5 minutes, and the remaining dose administered over the next 25 minutes. Similar delivery methods to produce an exposure that approximates the systemic pharmacokinetic profile seen with oral delivery are anticipated to give similar results. More rapid methods of administration and the resultant high plasma concentrations are not anticipated to discriminate useful compounds from non-useful compounds. […]

Consider `Cc1nccn1-c1ccc(Sc2cccc(C3(C(N)=O)CCOCC3)c2)cc1` [4-(3-(4-(2-methyl-1H-imidazol-1-yl)phenylthio)phenyl)-tetrahydro-2H-pyran-4-carboxamide, reference compound], for which, in data set [1], the nausea or emesis is 30 % of human subjects. Moreover, the emesis result in data set [2] (intravenously at 10, 30 and 60 mg/kg and 30 mg per kg oral) was “Emesis was observed in all dogs”.

Usually IC50 stands for the point on the concentration scale where inhibition reaches its midpoint. What is called IC80 is the concentration at which the effect reaches the 80% level. Higher therefore signals weaker potency. The term IC90 denotes the concentration at which the effect reaches the 90% level. Consider `Cn1nccc1-c1ccc(Sc2cccc(C3(C(N)=O)CCOCC3)c2)cc1F` [(Ia), 4-(3-{[3-fluoro-4-(1-methyl-1H-pyrazol-5-yl)phenyl]thio}phenyl)tetrahydro-2H-pyran-4-carboxamide], for which the “% of Control” value on 5-LO [3] (dose 1 mg/kg by gavage) is recorded as 25.74 % of Control; at 5-LO [3] (dose 3 mg/kg by gavage) it was 0 % of Control; at 5-LO [3] (dose 10 mg/kg by gavage), 0 % of Control. For the same molecule, the IC50 was determined as 204 nM at 5-LO [4] and 152 nM on 5-LO [5]. The same molecule displayed an 80% effect concentration (IC80) against 5-LO [5] of 357 nM. At 5-LO [5], it took 1310 nM to reach the 90% level (IC90).

Turning to `Cn1nccc1-c1ccc(Sc2cccc(C3(C(N)=O)CCOCC3)c2)cc1` [(Ib), 4-(3-{[4-(1-methyl-1H-pyrazol-5-yl)phenyl]thio}phenyl)tetrahydro-2H-pyran-4-carboxamide], the “% of Control” value is recorded as 20.24 % of Control at 5-LO [3] (dose 1 mg/kg by gavage); 5.23 % of Control on 5-LO [3] (dose 3 mg/kg by gavage, 3 mg/kg); 20 % of Control at 5-LO [3] (dose 3 mg/kg by gavage, listed as 4-(3-{[4-(1-methyl-1H-pyrazol-5-yl)phenyl]thio}phenyl)tetrahydro-2H-pyran-4-carb, 3 mg/kg); 2.30 % of Control at 5-LO [3] (dose 10 mg/kg by gavage). Further, the IC50 at 5-LO [4] was determined as 229 nM; on 5-LO [5], 135 nM. In the data set with 5-lipoxygenase enzyme, the “inhibition of the 5-LO enzyme” value stood at 100%. Further, the 80% effect concentration (IC80) at 5-LO [5] was found to be 397 nM. The molecule further yielded an IC90 on 5-LO [5] of 716 nM. For the same molecule, the nausea and emesis entry in data set [2] (beagle dogs, IV infusion (loading dose followed by slow infusion)) was “produce nausea and emesis through systemic exposure”. Also, the emesis entry in data set [2] (5 mg/kg IV) is reported as “no observed emesis”; in data set [2] (another experiment, oral 600 mg per kg) it was “No emesis was observed”; in data set [2] (oral route, doses of 10 and 100 mg per kg), “emesis in only one dog at 100 mg per kg”. Further, the “emesis (number of dogs)” value in data set [2] (another experiment, oral 100 mg per kg) is recorded as 2 dogs; in data set [2] (another experiment, oral 300 mg per kg) it was “one dog”.
